Results on 15 compounds are retold here after US12595251B2, “Amidines and amidine analogs for the treatment of bacterial infections and potentiation antibiotics” (GEORGIA STATE UNIVERSITY RESEARCH FOUNDATION, INC., priority 2018, dated 2026).

The subject of one assay is E. coli. Description: MIC of compounds against E. coli (OD600, 48 h). Format: cell-based. The settings on record: Escherichia coli; for inhibition at 12 µM: compound alone at 12 μM, NA=no activity, read-out: Growth inhibition of E. coli at 12 μM; for inhibition at 25 µM: read-out: Growth inhibition of E. coli at 25 μM, compound alone at 25 μM, NA=no activity; for inhibition at 50 µM: read-out: Growth inhibition of E. coli at 50 μM, compound alone at 50 μM, NA=no activity.

In the next assay the test system is B. subtilis. Description: MIC of compounds against B. subtilis (OD600, 48 h). In kind it is cell-based. The note with it: Bacillus subtilis; for MIC: MIC = 90% growth inhibition, compound alone; for inhibition at 1 µM: read-out: Growth inhibition of B. subtilis at 1 μM, compound alone at 1 μM; for inhibition at 2 µM: read-out: Growth inhibition of B. subtilis at 2 μM, compound alone at 2 μM; for inhibition at 12 µM: compound alone at 12 μM, read-out: Growth inhibition of B. subtilis at 12 μM; for inhibition at 6 µM: read-out: Growth inhibition of B. subtilis at 6 μM, compound alone at 6 μM, NA=no activity. As for the experimental part: Bacteria were then cultured with varying concentration of the compounds shown below for 48 hours, and then bacterial density was measured based on OD600. The procedure to determine the MIC for each compound against B. subtilis was the same except that the bacteria was cultured in nutrient broth. The MIC of each compound against B. subtilis is shown in Table 2 (NA=no activity, --=not tested).

The structures appear in SMILES notation.

`Cc1cc(COc2ccc(C(=N)NC(C)C)cc2)cc(COc2ccc(C(=N)NC(C)C)cc2)c1` [drawing 767]: in the assay on E. coli, the inhibition (as a rule, the relative decrease from the control value, in per cent) at 12 µM was found to be 40% and the inhibition at 25 µM was determined as 50%. In the assay on B. subtilis, the MIC (commonly the smallest concentration in the dilution series that meets the test's criterion for growth inhibition) worked out at 6 µM, the inhibition at 1 µM came out at 60% and the inhibition at 2 µM came out at 70%.
On to `COc1cc(C(=N)N)ccc1OCc1cc(C)cc(COc2ccc(C(=N)N)cc2OC)c1` [drawing 768], for which, in the assay on E. coli, the inhibition at 12 µM is 25% and the inhibition at 25 µM is 50%. Also, in the assay with B. subtilis, the MIC was 6 µM, the inhibition at 1 µM stood at 10% and the inhibition at 2 µM was 50%.
With `COc1cc(C(=N)N)ccc1OCc1cccc(COc2ccc(C(=N)N)cc2OC)c1F` [drawing 769], in the assay on E. coli, the inhibition at 12 µM came to 30% and the inhibition at 25 µM is 50%. In addition, in the assay with B. subtilis, the inhibition at 12 µM was determined as 50% and the inhibition at 6 µM was determined as 25%.
For `CC(C)(C)c1cc(COc2ccc(C(=N)N)cc2)cc(COc2ccc(C(=N)N)cc2)c1` [drawing 770], in the assay with E. coli, the inhibition at 12 µM amounted to 40% and the inhibition at 25 µM came out at 90%. In the assay on B. subtilis, the MIC is 6 µM, the inhibition at 1 µM worked out at 10% and the inhibition at 2 µM was 70%.
In the case of `Cn1c(-c2ccc(-c3ccc(C(=N)N)cc3)s2)nc2cc(-c3ccc(C(=N)N)cc3)ccc21` [drawing 771], in the assay with E. coli, the inhibition at 25 µM was 15%. Besides, in the assay on B. subtilis, the MIC is 12 µM, the inhibition at 2 µM amounted to 20% and the inhibition at 6 µM was determined as 50%.
As to `N=C(N)c1ccc2[nH]c(-c3ccc(-c4ccc(-c5ccc(-c6ccc(-c7nc8cc(C(=N)N)ccc8[nH]7)cc6)s5)s4)cc3)nc2c1` [drawing 772], the inhibition at 50 µM in the assay on E. coli was 10%. In addition, in the assay on B. subtilis, the inhibition at 12 µM is 20% and the inhibition at 6 µM was 20%.
For `N=C(N)c1ccc(OCc2cccc(COc3ccc(C(=N)N)cc3)c2)cc1` [drawing 773], in the assay on E. coli, the inhibition at 12 µM worked out at 35%, the inhibition at 25 µM came out at 50% and the inhibition at 50 µM came to 60%. For the same compound, in the assay with B. subtilis, the inhibition at 12 µM turned out to be 70%, the inhibition at 2 µM turned out to be 30% and the inhibition at 6 µM amounted to 60%.
For `Cc1cc(-c2nc3cc(C(=N)N)ccc3n2C)sc1-c1ccc(OCCCCOc2ccc(C(=N)N)cc2)cc1` [drawing 775], the inhibition at 25 µM in the assay on E. coli came to 30%. The inhibition at 12 µM in the assay with B. subtilis was 70%.
Turning to `N=C(N)c1ccc(OCc2cccc(COc3ccc(C(=N)N)cc3)n2)cc1` [drawing 776], the inhibition at 50 µM with E. coli was found to be 50%. Moreover, in the assay with B. subtilis, the MIC is 12.5 µM and the inhibition at 2 µM turned out to be 40%.
For `N=C(N)c1ccc(OCCCCCCOc2ccc(C(=N)N)cc2)cc1` [drawing 778], in the assay on E. coli, the inhibition at 12 µM turned out to be 40% and the inhibition at 25 µM came to 70%. In the assay on B. subtilis, the minimum inhibitory concentration (MIC) came out at 12 µM, the inhibition at 2 µM worked out at 30% and the inhibition at 6 µM was determined as 40%.
With `Cc1cc(COc2ccc(C3=NCCN3)cc2)cc(COc2ccc(C3=NCCN3)cc2)c1` [drawing 779], in the assay with E. coli, the inhibition at 12 µM was 10% and the inhibition at 25 µM stood at 25%. Further, in the assay on B. subtilis, the inhibition at 12 µM stood at 25% and the inhibition at 6 µM came to 20%.
Consider `Cc1cc(COc2ccc(CN)cc2)cc(COc2ccc(CN)cc2)c1` [drawing 780], for which the inhibition at 12 µM with E. coli and in the assay with B. subtilis was 10% in each case. Also, in the assay with E. coli, the inhibition at 25 µM is 30%.
Take `N=C(N)c1ccc(OCc2cc(COc3ccc(C(=N)N)cc3)cc(COc3ccc(C(=N)N)cc3)c2)cc1` [drawing 781]: in the assay on E. coli, the inhibition at 12 µM was 40% and the inhibition at 25 µM is 60%. In the assay on B. subtilis, the MIC amounted to 12 µM and the inhibition at 6 µM was 80%.
On to `Cc1cc(CCc2ccc(C(=N)N)cc2)cc(CCc2ccc(C(=N)N)cc2)c1` [drawing 782], for which, in the assay on E. coli, the inhibition at 12 µM was determined as 10% and the inhibition at 25 µM came to 20%. For the same compound, in the assay with B. subtilis, the inhibition at 12 µM is 80% and the inhibition at 6 µM worked out at 30%.
Regarding `Cc1cc(OCc2ccc(C(=N)N)cc2)cc(OCc2ccc(C(=N)N)cc2)c1` [drawing 783], the inhibition at 25 µM in the assay with E. coli turned out to be 30%. Moreover, in the assay on B. subtilis, the inhibition at 12 µM came to 20%.
